Measured values from patent US20260308159A1, “BICYCLIC HETEROARYLAMIDES HAVING GPR68 MODULATING ACTIVITY” (RECURSION PHARMACEUTICALS, INC., priority 2023, published 2026).

These molecules were tested against T1, human GPR68 (Homo sapiens, UniProt Q15743) (assay: GPR68 Biochemical Assay (Promega GloSensor cAMP assay, GPR68 antagonism)). Conditions: HEK293T cells transiently expressing hGPR68, antagonism of pH 5.5 stimulated cAMP, 15 min, read-out: hGPR68 IC50.
T1 construct: encoding full-length human GPR68 (uniprot ID: Q15743); expressed in transfected cells; host or cells: HEK293T
T1 sequence (Q15743 whole entry): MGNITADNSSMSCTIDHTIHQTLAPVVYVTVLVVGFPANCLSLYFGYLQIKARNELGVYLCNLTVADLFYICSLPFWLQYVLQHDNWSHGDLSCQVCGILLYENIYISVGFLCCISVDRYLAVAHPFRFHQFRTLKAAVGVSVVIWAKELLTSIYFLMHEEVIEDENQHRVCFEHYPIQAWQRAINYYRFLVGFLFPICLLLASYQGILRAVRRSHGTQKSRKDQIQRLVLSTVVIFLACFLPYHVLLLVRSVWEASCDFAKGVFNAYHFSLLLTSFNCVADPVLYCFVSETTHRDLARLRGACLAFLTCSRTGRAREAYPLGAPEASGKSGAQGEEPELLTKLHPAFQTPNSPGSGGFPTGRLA
Type: cell-based
Method in brief: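 Readout is GloSensor cAMP luminescence after 15 min at room temperature, normalised between pH 5.5 stimulation and pH 8.0 minimum controls; IC50 fitted sigmoidally. Test compounds, up to 50 μM final (9-point half-log, 0.5% DMSO), were co-added with pH 5.5 buffer to HEK293T cells transiently expressing full-length human GPR68 plus GloSensor.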

| IC50 [nM] | Compound |
| --- | --- |
| 5000 to 50000 | Cc1nn2c(C(=O)NC3Cc4ccc(Cc5ccccc5)cc4C3)ccnc2c1C(N)=O (centres unmarked) [Compound 51, N7-(5-benzylindan-2-yl)-2-methyl-pyrazolo[1,5-a]pyrimidine-3,7-dicarboxamide] |
| 500 to 5000 | NC(=O)c1cnn2c(C(=O)N[C@H]3C[C@@H](OC(F)(F)F)C3)ccnc12 [Compound 18, N7-[cis-3-(trifluoromethoxy)cyclobutyl]pyrazolo[1,5-a]pyrimidine-3,7-dicarboxamide] |
| < 50 | CCCc1nn2c(C(=O)NC3Cc4ccccc4C3)ccnc2c1C(N)=O [Compound 139, N7-indan-2-yl-2-propyl-pyrazolo[1,5-a]pyrimidine-3,7-dicarboxamide] |
| < 50 | NC(=O)c1c(C2CC2)nc2c(C(=O)N[C@H]3CCOc4cc(F)ccc43)ccnn12 [Compound 211, 2-cyclopropyl-N8-[(4S)-7-fluorochroman-4-yl]imidazo[1,2-b]pyridazine-3,8-dicarboxamide] |
| 5000 to 50000 | CO[C@H]1C[C@@H](NC(=O)c2ccnc3c(C(N)=O)cnn23)C1 [Compound 11, N7-(cis-3-methoxycyclobutyl)pyrazolo[1,5-a]pyrimidine-3,7-dicarboxamide] |
| 50 to 500 | N#Cc1nn2c(C(=O)NC3Cc4ccccc4C3)ccnc2c1C(N)=O [Compound 21, 2-cyano-N7-indan-2-yl-pyrazolo[1,5-a]pyrimidine-3,7-dicarboxamide] |
| < 50 | COCc1nn2c(C(=O)NC3Cc4ccccc4C3)ccnc2c1C(N)=O [Compound 57, N7-indan-2-yl-2-(methoxymethyl)pyrazolo[1,5-a]pyrimidine-3,7-dicarboxamide] |
| 50000 to 100000 | CN1CC(c2nn3c(C(=O)NC4Cc5ccccc5C4)ccnc3c2C(N)=O)C1 [Compound 24, N7-indan-2-yl-2-(1-methylazetidin-3-yl)pyrazolo[1,5-a]pyrimidine-3,7-dicarboxamide] |
| < 50 | COCc1nn2c(C(=O)Nc3cc4ccccc4n3C)ccnc2c1C(N)=O [Compound 118, 2-(methoxymethyl)-N7-(1-methylindol-2-yl)pyrazolo[1,5-a]pyrimidine-3,7-dicarboxamide] |
| 500 to 5000 | NC(=O)c1cnn2c(C(=O)NC3CCC(F)(F)CC3)ccnc12 [Compound 103, N7-(4,4-difluorocyclohexyl)pyrazolo[1,5-a]pyrimidine-3,7-dicarboxamide] |
| 500 to 5000 | CNC(=O)c1c(COC)nn2c(C(=O)N[C@H]3C[C@@H](OC(F)(F)F)C3)ccnc12 [Compound 161, 2-(methoxymethyl)-N3-methyl-N7-[cis-3-(trifluoromethoxy)cyclobutyl]pyrazolo[1,5-a]pyrimidine-3,7-dicarboxamide] |
| < 50 | COCc1nn2c(C(=O)NC3Cc4cc(F)cc(F)c4C3)ccnc2c1C(N)=O (centres unmarked) [Compound 92, N7-(4,6-difluoroindan-2-yl)-2-(methoxymethyl)pyrazolo[1,5-a]pyrimidine-3,7-dicarboxamide] |
| 50 to 500 | CCOCc1nn2c(C(=O)N[C@H]3C[C@@H](OC(F)(F)F)C3)ccnc2c1C(N)=O [Compound 205, 2-(ethoxymethyl)-N7-[cis-3-(trifluoromethoxy)cyclobutyl]pyrazolo[1,5-a]pyrimidine-3,7-dicarboxamide] |
| 500 to 5000 | COCc1nn2c(C(=O)NC3(C)CC4(CC(F)(F)C4)C3)ccnc2c1C(N)=O [Compound 124, N7-(2,2-difluoro-6-methyl-spiro[3.3]heptan-6-yl)-2-(methoxymethyl)pyrazolo[1,5-a]pyrimidine-3,7-dicarboxamide] |
| < 50 | COCc1nn2c(C(=O)NC3COc4ccc(Br)cc4C3)ccnc2c1C(N)=O (centres unmarked) [Compound 144, N7-(6-bromochroman-3-yl)-2-(methoxymethyl)pyrazolo[1,5-a]pyrimidine-3,7-dicarboxamide] |
| < 50 | COCc1nn2c(C(=O)NC3Cc4ccc(Cl)cc4C3)ccnc2c1C(N)=O (centres unmarked) [Compound 87, N7-(5-chloroindan-2-yl)-2-(methoxymethyl)pyrazolo[1,5-a]pyrimidine-3,7-dicarboxamide] |
| 500 to 5000 | Cc1nn2c(C(=O)NC3COc4ccccc4C3)ccnc2c1C(N)=O (centres unmarked) [Compound 47, N7-chroman-3-yl-2-methyl-pyrazolo[1,5-a]pyrimidine-3,7-dicarboxamide] |
| < 50 | COCc1nn2c(C(=O)NC3COc4cc(F)cc(F)c43)ccnc2c1C(N)=O (centres unmarked) [Compound 153, N7-(4,6-difluoro-2,3-dihydrobenzofuran-3-yl)-2-(methoxymethyl)pyrazolo[1,5-a]pyrimidine-3,7-dicarboxamide] |
| 500 to 5000 | NC(=O)c1cnn2c(C(=O)NC3CC(F)(F)C3)ccnc12 [Compound 102, N7-(3,3-difluorocyclobutyl)pyrazolo[1,5-a]pyrimidine-3,7-dicarboxamide] |

| IC50 [nM] | Compound |
| --- | --- |
| < 50 | COCc1nn2c(C(=O)NC3CC(F)(F)c4ccccc43)ccnc2c1C(N)=O (centres unmarked) [Compound 129, N7-(3,3-difluoroindan-1-yl)-2-(methoxymethyl)pyrazolo[1,5-a]pyrimidine-3,7-dicarboxamide] |
| < 50 | COCc1nn2c(C(=O)N[C@H]3C[C@@H](OC(F)(F)F)C3)ccnc2c1C(N)=O [Compound 61, 2-(methoxymethyl)-N7-[cis-3-(trifluoromethoxy)cyclobutyl]pyrazolo[1,5-a]pyrimidine-3,7-dicarboxamide] |
| 500 to 5000 | COCc1nn2c(C(=O)N3Cc4ccccc4C3)ccnc2c1C(N)=O [Compound 95, 7-(isoindoline-2-carbonyl)-2-(methoxymethyl)pyrazolo[1,5-a]pyrimidine-3-carboxamide] |
| 50 to 500 | COCc1nn2c(C(=O)NC3CC4(C3)CC(F)(F)C4)ccnc2c1C(N)=O [Compound 126, N7-(2,2-difluorospiro[3.3]heptan-6-yl)-2-(methoxymethyl)pyrazolo[1,5-a]pyrimidine-3,7-dicarboxamide] |
| < 50 | NC(=O)c1c(C2CC2)nn2c(C(=O)N[C@@H]3CCS(=O)(=O)c4ccccc43)ccnc12 [Compound 235, 2-cyclopropyl-N7-[(4R)-1,1-dioxo-3,4-dihydro-2H-thiochromen-4-yl]pyrazolo[1,5-a]pyrimidine-3,7-dicarboxamide] |
| < 50 | COCc1nn2c(C(=O)N[C@H]3CCCc4ccccc43)ccnc2c1C(N)=O [Compound 193, 2-(methoxymethyl)-N7-[(1S)-tetralin-1-yl]pyrazolo[1,5-a]pyrimidine-3,7-dicarboxamide] |
| < 50 | CSCc1nn2c(C(=O)NC3Cc4ccccc4C3)ccnc2c1C(N)=O [Compound 214, N7-indan-2-yl-2-(methylsulfanylmethyl)pyrazolo[1,5-a]pyrimidine-3,7-dicarboxamide] |
| < 50 | COCc1nc2c(C(=O)NC3CC(F)(F)C3)ccnn2c1C(N)=O [Compound 54, N8-(3,3-difluorocyclobutyl)-2-(methoxymethyl)imidazo[1,2-b]pyridazine-3,8-dicarboxamide] |
| 50 to 500 | COCc1nn2c(C(=O)NC3CCS(=O)(=O)c4ccccc43)cc(C)nc2c1C(N)=O (centres unmarked) [Compound 241, N7-(1,1-dioxo-3,4-dihydro-2H-thiochromen-4-yl)-2-(methoxymethyl)-5-methyl-pyrazolo[1,5-a]pyrimidine-3,7-dicarboxamide] |
| < 50 | NC(=O)c1c(C2CC2)nn2c(C(=O)NC3CC(F)(F)c4ccccc43)ccnc12 (centres unmarked) [Compound 112, 2-cyclopropyl-N7-(3,3-difluoroindan-1-yl)pyrazolo[1,5-a]pyrimidine-3,7-dicarboxamide] |
| 500 to 5000 | COCc1nn2c(C(=O)NC3CCc4nccn4C3)ccnc2c1C(N)=O (centres unmarked) [Compound 187, 2-(methoxymethyl)-N7-(5,6,7,8-tetrahydroimidazo[1,2-a]pyridin-6-yl)pyrazolo[1,5-a]pyrimidine-3,7-dicarboxamide] |
| < 50 | COCc1nc2c(C(=O)N[C@H]3CCOc4cc(F)ccc43)ccnn2c1C(N)=O [Compound 108, 2-(methoxymethyl)-N8-[(4S)-7-fluorochroman-4-yl]imidazo[1,2-b]pyridazine-3,8-dicarboxamide] |
| 5000 to 50000 | NC(=O)c1cnn2c(C(=O)NC3CNc4ncccc4C3)ccnc12 (centres unmarked) [Compound 20, N7-(1,2,3,4-tetrahydro-1,8-naphthyridin-3-yl)pyrazolo[1,5-a]pyrimidine-3,7-dicarboxamide] |
| 50 to 500 | COCc1nn2c(C(=O)NC3CCOc4ncccc43)ccnc2c1C(N)=O (centres unmarked) [Compound 171, N7-(3,4-dihydro-2H-pyrano[2,3-b]pyridin-4-yl)-2-(methoxymethyl)pyrazolo[1,5-a]pyrimidine-3,7-dicarboxamide] |
| 50 to 500 | COCc1nn2c(C(=O)NC3Cc4nccn4C3)ccnc2c1C(N)=O (centres unmarked) [Compound 165, N7-(6,7-dihydro-5H-pyrrolo[1,2-a]imidazol-6-yl)-2-(methoxymethyl)pyrazolo[1,5-a]pyrimidine-3,7-dicarboxamide] |
| < 50 | COCc1nc2c(C(=O)NC3CS(=O)(=O)c4ccccc43)ccnn2c1C(N)=O (centres unmarked) [Compound 223, N8-(1,1-dioxo-2,3-dihydrobenzothiophen-3-yl)-2-(methoxymethyl)imidazo[1,2-b]pyridazine-3,8-dicarboxamide] |
| < 50 | COCc1nn2c(C(=O)N[C@@H]3COc4cc(F)ccc43)ccnc2c1C(N)=O [Compound 167, N7-[(3S)-6-fluoro-2,3-dihydrobenzofuran-3-yl]-2-(methoxymethyl)pyrazolo[1,5-a]pyrimidine-3,7-dicarboxamide] |
| < 50 | CC(C)c1nn2c(C(=O)NC3CS(=O)(=O)c4ccccc43)ccnc2c1C(N)=O (centres unmarked) [Compound 228, N7-(1,1-dioxo-2,3-dihydrobenzothiophen-3-yl)-2-isopropyl-pyrazolo[1,5-a]pyrimidine-3,7-dicarboxamide] |

Same assay, conditions: hGPR68 IC50, HEK293T cells transiently expressing hGPR68, antagonism of pH 5.5 stimulated cAMP, 15 min

| IC50 [nM] | Compound |
| --- | --- |
| 500 to 5000 | NC(=O)c1c(C2CCOC2)nn2c(C(=O)NC3CC(F)(F)C3)ccnc12 (centres unmarked) [Compound 45, N7-(3,3-difluorocyclobutyl)-2-tetrahydrofuran-3-yl-pyrazolo[1,5-a]pyrimidine-3,7-dicarboxamide] |
